For orientation: IC50 means the concentration at which inhibition is half-maximal. The term GI50 denotes the concentration giving 50% growth inhibition. Low readings indicate more potent growth inhibition, high ones less potent growth inhibition.

The target of test [1] is BRD4 (His-Brd4(44-477)) (Homo sapiens (Human), UniProt O60885). Briefly: TR-FRET in-vitro binding assay for BRD4. The conditions noted are these: acetyl-histone H4 peptide. How it is done:
(§1) TR-FRET In-Vitro Binding Assays for BRD2, BRD3, and BRD4:
(§2) All assays were performed in 384 well microtiter plates. Each assay plate contained 8-point serial dilutions for 40 test compounds, plus 16 high- and 16 low controls. Liquid handling and incubation steps were done on an Innovadyne Nanodrop Express equipped with a robotic arm (Thermo CatX, Perkin Elmer/Caliper Twister II) and an incubator (Liconic STX40, Thermo Cytomat 2C450). The assay plates were prepared by addition of 50 nl per well of compound solution in 90% DMSO HummingBird nanodispenser (Zinsser Analytic). The assay was started by stepwise addition of 4.5 μl per well of bromo domain protein (50 mM HEPES, pH 7.5, 0.005% Tween20, 0.1% BSA, 50 mM NaCl, 45 nM His-Brd2(60-472) or 45 nM His-Brd3(20-477) or 45 nM His-Brd4(44-477) all proteins produced in-house) and 4.5 μl per well of peptide solution (50 mM HEPES, pH 7.5, 0.005% Tween20, 0.1% BSA, 50 mM NaCl, 60 nM acetyl-histone H4 (AcK 5, 8, 12, 16) (Biosyntan GmbH)). Reactions were incubated at 30° C. for 35 minutes. […] After 35 minutes incubation at 30° C., plates were measured in a Perkin Elmer EnVision multilabel reader. Concentrations causing 50% inhibition (IC50 values) were determined from percent inhibition values at different compound concentrations by non-linear regression analysis.
(§3) Preparation of Compound Dilutions
(§4) Test compounds were dissolved in DMSO (10 mM) and transferred into 1.4 mL flat bottom or V-shaped Matrix tubes carrying a unique 2D matrix. The stock solutions were stored at […] if not used immediately. For the test procedure the vials were defrosted and identified by a scanner whereby a working sheet was generated that guided the subsequent working steps. Compound dilutions were made in 96 well plates. This format enabled the assay of maximally 40 individual test compounds at 8 concentrations (single points) including 4 reference compounds, if desired (known BET inhibitors from the prior art, for this and other assays of the type disclosed herein). The dilution protocol included the production of “pre-dilution plates”, “master plates” and “assay plates”.
(§5) Pre-dilution plates: 96 polypropylene well plates were used as pre-dilution plates. A total of 4 pre-dilution plates were prepared including 10 test compounds each on the plate positions A1-A10, one standard compound at A11 and one DMSO control at A12. All dilution steps were done on a HamiltonSTAR robot.
(§6) Master plates: 30 μL of individual compound dilutions including standard compound and controls of the 4 “pre-dilution plates” were transferred into a 384 “master plate” including the following concentrations 10000, 3003, 1000, 300, 100, 30, 10 and 3 μM, respectively in 90% of DMSO.
(§7) Assay plates: Identical “assay plates” were then prepared by pipetting 50 nL each of compound dilutions of the “master plates” into 384-well “assay plates” by means of a HummingBird 384-channel dispenser. These plates were used directly for the assay which was performed in a total volume of 13.55 μL. This led to a final compound concentration of 37, 11, 3.7, 1.1, 0.37, 0.11, 0.037 and 0.011 μM and a final DMSO concentration of 0.37% in the assay.

Test [2] addresses BRD2 (His-Brd2(60-472)) (Homo sapiens (Human), UniProt P25440). The test can be described thus: TR-FRET in-vitro binding assay for BRD2. The conditions noted are these: acetyl-histone H4 peptide. On the procedure:
as §1, §2, §3, §4, §5, §6, §7

Test [3] deals with BRD3 (His-Brd3(20-477)) (Homo sapiens (Human), UniProt Q15059). The test can be described thus: TR-FRET in-vitro binding assay for BRD3. The conditions noted are these: acetyl-histone H4 peptide. How it is done:
as §1
All assays were performed in 384 well microtiter plates. Each assay plate contained 8-point serial dilutions for 40 test compounds, plus 16 high- and 16 low controls. Liquid handling and incubation steps were done on an Innovadyne Nanodrop Express equipped with a robotic arm (Thermo CatX, Perkin Elmer/Caliper Twister II) and an incubator (Liconic STX40, Thermo Cytomat 2C450). The assay plates were prepared by addition of 50 nl per well of compound solution in 90% DMSO HummingBird nanodispenser (Zinsser Analytic). […] Reactions were incubated at 30° C. for 35 minutes. […] After 35 minutes incubation at 30° C., plates were measured in a Perkin Elmer EnVision multilabel reader.
as §3, §4, §5
(§8) These plates were used directly for the assay which was performed in a total volume of 13.55 μL.

Test [4] addresses CREBBP bromodomain (His-CREBBP(1081-1197)) (Homo sapiens (Human), UniProt Q92793). The test can be described thus: AlphaScreen in-vitro binding assay for CREBBP. As to conditions: AlphaScreen, acetyl-histone H4 peptide; read-out: CREBBP IC50. On the procedure: AlphaScreen In-Vitro Binding Assay for CREBBP
In order to assess bromodomain selectivity, we set up a binding assay using the bromodomain encoded by the CREBBP gene. […] Reactions were incubated at 30° C. for 35 minutes. Subsequently 4.5 μl per well detection mix (50 mM HEPES, pH 7.5, 0.005% Tween20, 0.02% BSA, 150 mM NaCl, 45 μg/ml Ni-chelate acceptor beads, 45 μg/ml streptavidin-donor beads) (Perkin Elmer)) were added. After 60 minutes incubation at room temperature, plates were measured in a Perkin Elmer EnVision multilabel reader. IC50 values were determined from percent inhibition values at different compound concentrations by non-linear regression analysis.
as §3, §4, §5, §8
In general terms: In Alpha technology, singlet oxygen from a donor bead excites a nearby acceptor bead.

For test [5], the system named is MV-4-11 cells. The test can be described thus: Cell growth inhibition assay (CellTiter-Glo), MV-4-11. The class given is cell-based, human. The conditions noted are these: MV-4-11, 4 days; for GI50: Homo sapiens, MV4-11, 96 h, half-maximal growth inhibition; for MV-4-11 TGI: total growth inhibition. On the procedure: (§9) Cell Growth Inhibition Assay
(§10) The human leukemia cell lines MV-4-11, THP-1 and K-562 were employed to characterize the effect of BET inhibitors on cellular proliferation and viability. Cells were obtained from the American Type Culture Collection (ATCC) and cultured at 37° C. in a humidified 5% CO2 incubator in the following media: MV-4-11: DMEM high glucose (Animed #1-26F01-I), 10% FCS (Animed #2-01F26-I), 4 mM L-Glutamine (Animed #5-10K50), 1 mM Sodium Pyruvate (Animed #G03625P), lx Penicillin-Streptomycin (Animed #F12478P); K-562: Iscove's MEM (Animed #1-28F16-I), 10% FCS (Animed #2-01F26-I), 4 mM L-Glutamine (Animed #5-10K50), 1× Penicillin-Streptomycin (Animed #F12478P); THP-1: RPMI-1640 (Animed #1-41F01-I), 10% FCS (Animed #2-01F26-I), 2 mM L-Glutamine (Animed #5-10K50), 10 mM HEPES (Animed #5-31F100), 1 mM Sodium Pyruvate (Animed #G03625P), 1× Penicillin-Streptomycin (Animed #F12478P). The AML lines MV-4-11 and THP-1 are very sensitive to BET inhibitors and show massive cell death upon BET inhibition (Zuber et al., Nature, 478 (2011), 524-8). Compound-mediated suppression of cell proliferation/viability was assessed by quantification of cellular ATP levels using the CellTiter-Glo (CTG) reagent (Promega). Briefly, cells were seeded in 20 μl fresh medium into 384-well plates, followed by addition of 5 μl medium containing compound dilutions at 5-fold their final intended concentration. Dose-response effects were assessed by 3-fold serial dilutions of the test compound, starting at 10 μM. Following incubation of the cells for 4 days at 37° C. and 5% CO2, the effect of inhibitors on cell viability was quantified following addition of 20 μl CTG and luminescence quantification (integration time: 100 ms) as per vendor manual, using a correspondingly equipped Tecan M200 multi-mode platereader (TECAN, Switzerland). For data analysis, the assay background value determined in wells containing medium, but no cells, was subtracted from all data points. To enable differentiation of cytotoxic from cytostatic compounds, the number of viable cells is assessed relative to that observed at the time of compound addition using a separate cell plate (day 0). The effect of a particular test compound concentration on cell proliferation/viability is expressed as percentage of the background- and day 0-corrected luminescence reading obtained for cells treated with vehicle only (DMSO, 0.1% final concentration), which is set as 100%, whereas that luminescence reading for wells containing medium is set as −100%. Compound concentrations leading to half-maximal (IC50) and total growth inhibition (TGI) were determined using standard four parameter curve fitting.
On the technique in general: Cellular ATP, detected with luciferase, serves as a proxy for viable cell number.

The test system of test [6] is THP-1 cells. The test can be described thus: Cell growth inhibition assay (CellTiter-Glo), THP-1. As to conditions: THP-1, 4 days; for GI50: Homo sapiens, 96 h, half-maximal growth inhibition; for THP-1 TGI: total growth inhibition. The class given is cell-based, human. How it is done:
as §9, §10

The test system of test [7] is K-562 cells. Briefly: Cell growth inhibition assay (CellTiter-Glo), K-562. The class given is cell-based, human. As to conditions: K-562, 4 days; for GI50: Homo sapiens, K562, 96 h, half-maximal growth inhibition; for K-562 TGI: total growth inhibition. How it is done: as §9, §10

The structures appear in SMILES notation.

BRD3 (His-Brd3(20-477)), sequence (Q15059 20-477): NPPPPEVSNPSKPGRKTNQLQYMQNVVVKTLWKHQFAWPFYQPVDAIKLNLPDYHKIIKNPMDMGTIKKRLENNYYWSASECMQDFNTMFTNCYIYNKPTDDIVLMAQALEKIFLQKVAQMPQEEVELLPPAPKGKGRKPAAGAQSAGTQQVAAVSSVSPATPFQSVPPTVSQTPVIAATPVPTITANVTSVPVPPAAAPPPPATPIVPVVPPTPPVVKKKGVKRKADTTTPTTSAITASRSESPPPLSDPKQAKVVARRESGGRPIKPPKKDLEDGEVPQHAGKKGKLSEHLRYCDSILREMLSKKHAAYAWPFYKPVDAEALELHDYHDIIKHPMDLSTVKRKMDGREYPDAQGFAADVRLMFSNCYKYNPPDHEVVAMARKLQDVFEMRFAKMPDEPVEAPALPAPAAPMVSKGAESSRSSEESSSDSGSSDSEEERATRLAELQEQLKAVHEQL
BRD2 (His-Brd2(60-472)), sequence (P25440 60-472): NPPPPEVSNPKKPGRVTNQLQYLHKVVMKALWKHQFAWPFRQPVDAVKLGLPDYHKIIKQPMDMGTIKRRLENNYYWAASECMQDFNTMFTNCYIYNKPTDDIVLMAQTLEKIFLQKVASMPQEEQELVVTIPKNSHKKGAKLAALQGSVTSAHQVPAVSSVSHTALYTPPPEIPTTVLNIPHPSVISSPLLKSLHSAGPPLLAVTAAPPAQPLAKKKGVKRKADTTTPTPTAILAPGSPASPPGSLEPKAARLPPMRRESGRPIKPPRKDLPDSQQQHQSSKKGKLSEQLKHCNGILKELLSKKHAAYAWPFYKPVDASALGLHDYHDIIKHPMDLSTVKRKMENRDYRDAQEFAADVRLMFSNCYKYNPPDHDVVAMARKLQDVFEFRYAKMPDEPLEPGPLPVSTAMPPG
CREBBP bromodomain (His-CREBBP(1081-1197)), sequence (Q92793 1081-1197): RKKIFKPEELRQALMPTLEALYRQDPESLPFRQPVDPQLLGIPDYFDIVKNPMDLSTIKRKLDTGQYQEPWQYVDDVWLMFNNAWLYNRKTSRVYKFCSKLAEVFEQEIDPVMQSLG

On to `Cc1cc(N2C(=O)c3c(C4CC4)nn(-c4ccnn4C)c3C2c2ccc(Cl)cc2)cc2c1nnn2C` (centres unmarked) [Example 21, 6-(4-chlorophenyl)-3-cyclopropyl-5-(1,4-dimethyl-1H-benzo[d][1,2,3]triazol-6-yl)-1-(1-methyl-1H-pyrazol-5-yl)-5,6-dihydropyrrolo[3,4-c]pyrazol-4(1H)-one], for which the IC50 in test [1] was 17 nM; in test [2], 31 nM; in test [3], 23 nM; in test [4], 6600 nM. In addition, the GI50 in test [5] was 13.5 nM; in test [6] it was 22.3 nM; in test [7], 78.8 nM. In addition, the “MV-4-11 TGI” value in test [5] amounted to 27.25 nM. Moreover, in test [6], the “THP-1 TGI” value came out at 44.45 nM. For the same molecule, in test [7], the “K-562 TGI” value was >10000 nM.
As to `COc1cc(N2C(=O)c3c(C4CC4)nn(C)c3C2c2ccc(Cl)cc2)cn2c(C(F)F)nnc12` (centres unmarked) [Example 22, 6-(4-chlorophenyl)-3-cyclopropyl-5-(3-(difluoromethyl)-8-methoxy-[1,2,4]triazolo-[4,3-a]pyridin-6-yl)-1-methyl-5,6-dihydropyrrolo[3,4-c]pyrazol-4(1H)-one], the half-maximal inhibitory concentration (IC50) in test [1] was 130 nM; in test [2], 210 nM; in test [3] it was 230 nM; in test [4], > 37000 nM. In addition, the GI50 in test [5] is 266 nM; in test [6] it was 814 nM; in test [7] it was 1180 nM. For the same molecule, in test [5], the “MV-4-11 TGI” value came out at 574 nM. Moreover, the “THP-1 TGI” value in test [6] stood at 1330 nM. Moreover, the “K-562 TGI” value in test [7] is >10000 nM.
With `Cc1cc(N2C(=O)c3c(C4CC4)nn(C)c3[C@H]2c2ccc(Cl)cc2)nn2c(C)nnc12` [Example 24, (R)-6-(4-chlorophenyl)-3-cyclopropyl-5-(3,8-dimethyl-[1,2,4]triazolo[4,3-b]pyridazin-6-yl)-1-methyl-5,6-dihydropyrrolo[3,4-c]pyrazol-4(1H)-one], the IC50 is < 11 nM in test [1], < 11 nM in test [2], < 11 nM in test [3] and 19200 nM in test [4]. Moreover, the GI50 came out at 0.643 nM in test [5], 1.88 nM in test [6] and 10.4 nM in test [7]. Further, in test [5], the “MV-4-11 TGI” value is 1.57 nM. Also, in test [6], the “THP-1 TGI” value was found to be 4.91 nM. The “K-562 TGI” value in test [7] was >10000 nM.
Take `Cc1cc(N2C(=O)c3c(C4CC4)nn(-c4ccnn4C)c3C2c2ccc(Cl)cc2)nn2c(C)nnc12` (centres unmarked) [Example 25, 6-(4-chlorophenyl)-3-cyclopropyl-5-(3,8-dimethyl-[1,2,4]triazolo[4,3-b]pyridazin-6-yl)-1-(1-methyl-1H-pyrazol-5-yl)-5,6-dihydropyrrolo[3,4-c]pyrazol-4(1H)-one]: the IC50 in test [1] was 25 nM; in test [2] it was 32 nM; in test [3] it was 24 nM; in test [4], > 37000 nM. For the same molecule, the GI50 in test [5] came out at 6.65 nM; in test [6], 20.1 nM; in test [7] it was 91.6 nM. For the same molecule, in test [5], the “MV-4-11 TGI” value is 15.9 nM. Also, in test [6], the “THP-1 TGI” value turned out to be 44.4 nM. In test [7], the “K-562 TGI” value was >10000 nM.
Turning to `Cc1nnc2c(N)cc(N3C(=O)c4c(C5CC5)nn(C)c4C3c3ccc(Cl)cc3)cn12` (centres unmarked) [Example 28, 5-(8-amino-3-methyl-[1,2,4]triazolo[4,3-a]pyridin-6-yl)-6-(4-chlorophenyl)-3-cyclopropyl-1-methyl-5,6-dihydropyrrolo[3,4-c]pyrazol-4(1H)-one], the IC50 stood at 21 nM in test [1], 41 nM in test [2], 34 nM in test [3] and 3700 nM in test [4]. The GI50 in test [5] stood at 1.56 nM; in test [6], 2.83 nM; in test [7] it was 9.66 nM. Besides, the “MV-4-11 TGI” value in test [5] is 3.515 nM. Moreover, the “THP-1 TGI” value in test [6] was 9.04 nM. Besides, the “K-562 TGI” value in test [7] is >10000 nM.

These data come from patent US9624247B2, “Pyrazolo-pyrrolidin-4-one derivatives as bet inhibitors and their use in the treatment of disease” (NOVARTIS AG, priority 2013, dated 2017).
